Assay results as given in ChEMBL document CHEMBL1201862, “PubChem BioAssay data set” (2004).
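Results reflect a 48-hour exposure of cells in 96-well plates to compound at five concentrations. GI50 is the concentration that inhibits growth by half.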 The source made the active and inactive calls. No stated cut-off is given here; in the data, active = GI50 up to about 1.1 µM and inactive = higher.

Legend:
Assay in all cases: inhibition of tumour cell growth, NCI panel, 48 h
HCT-15 = system: HCT-15
MCF7 = system: MCF7
A549 = system: A549
SN12C = system: SN12C
KM12 = system: KM12
TK-10 = system: TK-10
786-0 = system: 786-0
NCI-H522 = system: NCI-H522
OVCAR-5 = system: OVCAR-5
DU-145 = system: DU-145
RXF 393 = system: RXF 393
OVCAR-8 = system: OVCAR-8
PC-3 = system: PC-3
U-251 = system: U-251
IGROV-1 = system: IGROV-1
HT-29 = system: HT-29
HOP-92 = system: HOP-92
M14 = system: M14
BT-549 = system: BT-549
UACC-62 = system: UACC-62

| Structure (SMILES) | GI50 (HCT-15) | GI50 (MCF7) | GI50 (A549) | GI50 (SN12C) | GI50 (KM12) | GI50 (TK-10) | GI50 (786-0) | GI50 (NCI-H522) | GI50 (OVCAR-5) | GI50 (DU-145) | GI50 (RXF 393) | GI50 (OVCAR-8) | GI50 (PC-3) | GI50 (U-251) | GI50 (IGROV-1) | GI50 (HT-29) | GI50 (HOP-92) | GI50 (M14) | GI50 (BT-549) | GI50 (UACC-62) |
| --- | --- | --- | --- | --- | --- | --- | --- | --- | --- | --- | --- | --- | --- | --- | --- | --- | --- | --- | --- | --- |
| COc1cc(OC)c(OC)cc1/C=C1\C=Cc2ccccc21 | 12.4 µM | 12.1 µM (inactive) | 26.5 µM (inactive) | 18.8 µM (inactive) | 10.3 µM (inactive) | 17.3 µM (inactive) | 28.1 µM (inactive) | 12.1 µM (inactive) | 12.5 µM (inactive) | 28.8 µM (inactive) | 11.4 µM (inactive) | 31.7 µM (inactive) | 5.52 µM (inactive) | 9.12 µM (inactive) | 26.9 µM (inactive) | 11.7 µM (inactive) | – | – | – | – |
| CCCCCCCCCC(O)CC(=O)c1c(O)cccc1O (stereo unspecified) | 18.2 µM | 26.8 µM (inactive) | 23.6 µM (inactive) | 31.3 µM (inactive) | 19.3 µM (inactive) | 21.8 µM (inactive) | 19.1 µM (inactive) | 19 µM (inactive) | 18.7 µM (inactive) | 38 µM (inactive) | 16.9 µM (inactive) | 18.8 µM (inactive) | 18.7 µM (inactive) | 36.7 µM (inactive) | 18.8 µM (inactive) | 19.5 µM (inactive) | 25.4 µM (inactive) | 20.1 µM (inactive) | – | – |
| O=[N+]([O-])/C(C(Cl)=C(Cl)Cl)=C(/Nc1cccc2cccnc12)n1nnc2ccccc21 | 10.8 µM | 19.6 µM (inactive) | 27.3 µM (inactive) | 16.3 µM (inactive) | 16 µM (inactive) | – | 14.3 µM (inactive) | – | 21.6 µM (inactive) | – | – | 13.8 µM (inactive) | 19.2 µM (inactive) | – | – | 17.7 µM (inactive) | – | 12.2 µM (inactive) | 14.2 µM (inactive) | – |
| NC(=S)N/N=C1/CCCC2CCCC[C@@H]12 (stereo partly specified) | > 100 µM | > 100 µM (inactive) | > 100 µM (inactive) | – | > 100 µM (inactive) | > 100 µM (inactive) | > 100 µM (inactive) | 80.4 µM (inactive) | > 100 µM (inactive) | > 100 µM (inactive) | > 100 µM (inactive) | > 100 µM (inactive) | > 100 µM (inactive) | > 100 µM (inactive) | > 100 µM (inactive) | > 100 µM (inactive) | > 100 µM (inactive) | > 100 µM (inactive) | – | > 100 µM (inactive) |
| C[N+](C)([O-])Cc1cc(-c2ccccc2)ccc1O | > 100 µM | – | > 100 µM (inactive) | > 100 µM (inactive) | > 100 µM (inactive) | > 100 µM (inactive) | > 100 µM (inactive) | > 100 µM (inactive) | > 100 µM (inactive) | > 100 µM (inactive) | > 100 µM (inactive) | – | > 100 µM (inactive) | > 100 µM (inactive) | > 100 µM (inactive) | > 100 µM (inactive) | > 100 µM (inactive) | > 100 µM (inactive) | > 100 µM (inactive) | > 100 µM (inactive) |
| CC(=O)NC1C(OCc2ccccc2)OC(CO)C(O)C1OCC(=O)N[C@@H](C)C(=O)N[C@H](CCC(=O)NCCCNc1ccc([N+](=O)[O-])c2[nH]c3ccccc3c(=O)c12)C(N)=O (stereo partly specified) | 94.2 µM | – | > 100 µM (inactive) | > 100 µM (inactive) | 93.5 µM (inactive) | 41.7 µM (inactive) | 34.2 µM (inactive) | 29.3 µM (inactive) | > 100 µM (inactive) | 60.8 µM (inactive) | 63.5 µM (inactive) | 92.9 µM (inactive) | > 100 µM (inactive) | 48.3 µM (inactive) | 23.4 µM (inactive) | 36.8 µM (inactive) | > 100 µM (inactive) | > 100 µM (inactive) | 38.4 µM (inactive) | 36.2 µM (inactive) |
| O=C(O)c1ccccc1/C=C1\Cc2ccc3c(c2C1=O)CCCC3 | 37.1 µM | 48.3 µM (inactive) | 42.7 µM (inactive) | 26.2 µM (inactive) | 39.8 µM (inactive) | 75.2 µM (inactive) | 98.9 µM (inactive) | 25.2 µM (inactive) | 73.1 µM (inactive) | 41.4 µM (inactive) | 30.5 µM (inactive) | 68.7 µM (inactive) | – | 44.7 µM (inactive) | 31 µM (inactive) | 50.6 µM (inactive) | 14.3 µM (inactive) | 28.9 µM (inactive) | 41 µM (inactive) | 21.1 µM (inactive) |
| CNC1=C(C)C(=O)C(C)=C(C(C)(C)CC(=O)n2cc(F)c(=O)[nH]c2=O)C1=O | 19.9 µM | – | 5.09 µM (inactive) | 8.67 µM (inactive) | 14.5 µM (inactive) | > 59.3 µM (inactive) | 22.6 µM (inactive) | 35 µM (inactive) | > 100 µM (inactive) | – | > 100 µM (inactive) | 31.6 µM (inactive) | – | > 75.9 µM (inactive) | 67 µM (inactive) | 12.5 µM (inactive) | > 100 µM (inactive) | 48.1 µM (inactive) | – | 45.4 µM (inactive) |
| COc1ccc(/C=C2\C=Cc3ccccc32)cc1OC | > 100 µM | > 100 µM (inactive) | > 100 µM (inactive) | 60 µM (inactive) | > 100 µM (inactive) | > 100 µM (inactive) | 57.5 µM (inactive) | 30.4 µM (inactive) | > 100 µM (inactive) | > 100 µM (inactive) | 50.4 µM (inactive) | > 100 µM (inactive) | 46.5 µM (inactive) | 76 µM (inactive) | 73.8 µM (inactive) | 88.3 µM (inactive) | 6.49 µM (inactive) | > 100 µM (inactive) | – | 23.1 µM (inactive) |
| c1ccc(N2N=NC3C4CC(C5c6ccccc6C45)C32)cc1 (stereo unspecified) | 31.3 µM | – | 33.8 µM (inactive) | 33.6 µM (inactive) | 39.3 µM (inactive) | > 100 µM (inactive) | 59 µM (inactive) | 20.5 µM (inactive) | 44.6 µM (inactive) | – | 15.4 µM (inactive) | 57.7 µM (inactive) | – | 32.5 µM (inactive) | 56.8 µM (inactive) | 19.6 µM (inactive) | 19.1 µM (inactive) | 54.1 µM (inactive) | – | 28.1 µM (inactive) |
| COc1ccc2oc(=O)c(-c3nc4ccccc4s3)cc2c1 | > 79.6 µM | – | 19.9 µM (inactive) | 33.4 µM (inactive) | > 55.3 µM (inactive) | 32.2 µM (inactive) | 7.82 µM (inactive) | 29.4 µM (inactive) | 23 µM (inactive) | 21.8 µM (inactive) | 12.2 µM (inactive) | 14.9 µM (inactive) | 63.8 µM (inactive) | 15 µM (inactive) | 12.8 µM (inactive) | 13.6 µM (inactive) | 19.7 µM (inactive) | 22.7 µM (inactive) | > 63.7 µM (inactive) | 43.5 µM (inactive) |
| C=C(c1ccccc1)C1(O)CCCCC1N (stereo unspecified) | > 100 µM | – | > 100 µM (inactive) | > 100 µM (inactive) | > 100 µM (inactive) | > 100 µM (inactive) | > 100 µM (inactive) | > 100 µM (inactive) | > 100 µM (inactive) | – | > 100 µM (inactive) | > 100 µM (inactive) | – | > 100 µM (inactive) | > 100 µM (inactive) | > 100 µM (inactive) | > 100 µM (inactive) | > 100 µM (inactive) | – | > 100 µM (inactive) |
